Test results published in US20030175438A1, “Treatments of solid substrates to enhance durability of treatments placed thereon” (priority 2002, published 2003).

Assay: Bromphenol Blue (BPB) Extraction Method, spectrophotometric at 595 nm (modified CTM 0824), on treated fabric
Type: physicochemical
Details: for % EXTRACTION CHANGE / EXTRACTION CHANGE / % BPB Extraction (change on boiling): boiled vs not boiled; for Boiling Durability - % BPB Extraction: Boil 30 min., Table XIV; for Strike Rate - % BPB Extraction: No Boil, Table XIII; for Boiled in H20 % Extraction / Change % Extraction / No Boil % Extraction: Table XI

CCCCCCCCCCCCCCCCCC[N+](C)(C)CCC[Si](OC)(OC)OC.[Cl-] [AMT, N, N-dimethyl-N-Octadecyl-3-(trimethoxysilyl)propanaminium chloride]
% EXTRACTION CHANGE (NYLON, Table IX): −66% | EXTRACTION CHANGE (NYLON, Table VI): −71% | % EXTRACTION CHANGE (NYLON, Table VII): −69% | % EXTRACTION CHANGE (NYLON, Table XV): −59% | % EXTRACTION CHANGE (NYLON, Table XVII): −54% | % BPB EXTRACTION @ 595 nm (NYLON, boiled, Table VII): 18% | % Extraction @ 595 nm (NYLON, not boiled, Table I): 82% | % BPB EXTRACTION @ 595 nm (NYLON, not boiled, Table III): 77% | % Extraction @ 595 nm (NYLON, not boiled, Table IV): 70% | % Extraction @ 595 nm (NYLON, not boiled, Table VI): 82% | % BPB EXTRACTION @ 595 nm (NYLON, not boiled, Table VII): 87% | % BPB EXTRACTION @ 595 nm (NYLON, not boiled, oven dried 130° C. 5 minutes, Table XV): 89% | Boiling Durability - % BPB Extraction (Nylon): 14.42% | Boiling Durability - % BPB Extraction (Nylon, treatment at pH = 11): 17.83% | Boiling Durability - % BPB Extraction (PET Staple): 6.82% | Boiling Durability - % BPB Extraction (PET Staple, treatment at pH = 11): 37.6% | Strike Rate - % BPB Extraction (PET Staple, 0.25 grams of fabric): 17.36% | Boiling Durability - % BPB Extraction (PET, treatment at pH = 11): 14.38% | Strike Rate - % BPB Extraction (PET, 0.25 grams of fabric): 4.98% | % Extraction @ 595 nm (PET, boiled 30 minutes, Table I): 18% | % BPB EXTRACTION @ 595 nm (PET, boiled 30 minutes, Table III): 20% | % Extraction @ 595 nm (PET, boiled 30 minutes, Table VI): 26% | Boiling Durability % BPB EXTRACTION @ 595 nm (PET, boiled 30 minutes, Table XVII): 19% | % BPB Extraction (change on boiling) (PET, Table I): −71% | % EXTRACTION CHANGE (PET, Table III): −74% | % EXTRACTION CHANGE (PET, Table IX): −73% | EXTRACTION CHANGE (PET, Table VI): −63% | % EXTRACTION CHANGE (PET, Table VII): −72% | % EXTRACTION CHANGE (PET, Table XV): −50% | % BPB EXTRACTION @ 595 nm (PET, boiled, Table IX): 14% | % BPB EXTRACTION @ 595 nm (PET, boiled, Table VII): 91% | % Extraction @ 595 nm (PET, not boiled, Table I): 89% | % BPB EXTRACTION @ 595 nm (PET, not boiled, Table IX): 87% | % Extraction @ 595 nm (PET, not boiled, Table VI): 89% | % BPB EXTRACTION @ 595 nm (PET, not boiled, Table VII): 93% | Boiling Durability % BPB EXTRACTION @ 595 nm (PET, not boiled, Table XVII): 83% | % BPB EXTRACTION @ 595 nm (PET, not boiled, oven dried 130° C. 5 minutes, Table XV): 86% | % BPB EXTRACTION @ 595 nm (PPNW, boiled 30 minutes, Table XV): 45% | Boiling Durability % BPB EXTRACTION @ 595 nm (PPNW, boiled 30 minutes, Table XVII): 37% | % EXTRACTION CHANGE (PPNW, Table XV): −40% | % EXTRACTION CHANGE (PPNW, Table XVII): −40% | Boiling Durability % BPB EXTRACTION @ 595 nm (PPNW, not boiled, Table XVII): 77% | % BPB EXTRACTION @ 595 nm (PPNW, not boiled, oven dried 130° C. 5 minutes, Table XV): 85% | % Extraction @ 595 nm (RAYON, boiled 30 minutes, Table I): 35% | % BPB EXTRACTION @ 595 nm (RAYON, boiled 30 minutes, Table III): 50% | % Extraction @ 595 nm (RAYON, boiled 30 minutes, Table VI): 44% | % BPB Extraction (change on boiling) (RAYON, Table I): −55% | % EXTRACTION CHANGE (RAYON, Table III): −44% | % EXTRACTION CHANGE (RAYON, Table IX): −40% | EXTRACTION CHANGE (RAYON, Table VI): −50% | % EXTRACTION CHANGE (RAYON, Table VII): −50% | % BPB EXTRACTION @ 595 nm (RAYON, boiled, Table IX): 52% | % BPB EXTRACTION @ 595 nm (RAYON, boiled, Table VII): 42% | % Extraction @ 595 nm (RAYON, not boiled, Table I): 90% | % BPB EXTRACTION @ 595 nm (RAYON, not boiled, Table III): 94% | % BPB EXTRACTION @ 595 nm (RAYON, not boiled, Table IX): 92% | % Extraction @ 595 nm (RAYON, not boiled, Table VI): 94% | % BPB EXTRACTION @ 595 nm (RAYON, not boiled, Table VII): 92% | Boiling Durability - % BPB Extraction (Rayon): 9.88% | Boiling Durability - % BPB Extraction (Rayon, treatment at pH = 11): 21.36% | Strike Rate - % BPB Extraction (Rayon, treatment at pH = 11): 19.5% | Boiled in H20 % Extraction (cure: 130° C. for 5 Min): 21% | Change % Extraction (cure: 130° C. for 5 Min): −36% | No Boil % Extraction (cure: 130° C. for 5 Min): 57% | Boiled in H20 % Extraction (cure: Air Dried): 21% | Change % Extraction (cure: Air Dried): −46% | No Boil % Extraction (cure: Air Dried): 67%
